Experimental data as given in US8124780B2, “Benzimidazole compound” (priority 2005, dated 2012).
Where a name gives a salt, the structure may show the parent alone. Read-outs that look alike come from different tables or passages of the source.

System: gastric acid secretion
Assay: animal or person
Format: in vivo, dog
Conditions: Canis lupus familiaris, iv
[1] = 24 h, read-out: Persistency of inhibitory effect against gastric acid secretion (%)
[2] = read-out: Inhibitory effect against gastric acid secretion (%)

SMILES | inhibition in vivo at 0.8 mg/kg [1] | inhibition in vivo at 0.8 mg/kg [2]
[O-][S+](Cc1cc(OC2COC3(CCC3)OC2)ccn1)c1nc2ccccc2[nH]1 (centres unmarked) [Example 83, 2-(((4-(5,9-dioxaspiro[3.5]non-7-yloxy)pyridin-2-yl)methyl)sulfinyl)-1H-benzimidazole sodium salt] | 94% | 71%
Cc1c(OCC2OCC3(CCC3)CO2)ccnc1C[S+]([O-])c1nc2ccccc2[nH]1 (centres unmarked) [Example 85, 2-(((4-(6,8-dioxaspiro[3.5]non-7-ylmethoxy)-3-methylpyridin-2-yl)methyl)sulfinyl)-1H-benzimidazole sodium salt] | 86% | 100%
Cc1c(OCCC2OCC(C)(C)CO2)ccnc1C[S+]([O-])c1nc2ccccc2[nH]1 (centres unmarked) [Example 86, 2-(((4-(2-(5,5-dimethyl-1,3-dioxan-2-yl)ethoxy)-3-methylpyridin-2-yl)methyl)sulfinyl)-1H-benzimidazole sodium salt] | 75% | 100%
Cc1c(OCC2COCO2)ccnc1C[S+]([O-])c1nc2ccccc2[nH]1 (centres unmarked) [Example 87, 2-(((4-(1,3-dioxolan-4-ylmethoxy)-3-methylpyridin-2-yl)methyl)sulfinyl)-1H-benzimidazole sodium salt] | 92% | 100%
